# Active and inactive are the calls of the source. The calls are words filed in the database; no cut-off is given here.
# Tests used:
# [1] = Inhibition of bovine lung sGC assessed as reduction in GMP level incubated for 2 to 12 hrs in presence of NPS by ELISA; assay type: tissue-based, Bos taurus
# [2] = Inhibition of human sGC expressed in HUVEC cells assessed as reduction in GMP level incubated for 24 hrs in presence of NPS by ELISA; assay type: cell-based
# [3] = Inhibition of bovine lung sGC assessed as reduction in GMP level incubated for 2 hrs in presence of NPS by ELISA; assay type: tissue-based, Bos taurus
# HEPC-CB.1 [4] = assay: Inhibition of angiogenesis in HEPC-CB1 cells assessed as decrease in number of closed structures at 10 uM after 13 hrs by fluorescence inverted microscopic analysis; assay type: functional, cell-based; details: Homo sapiens
# HEPC-CB.1 [5] = assay: Inhibition of angiogenesis in HEPC-CB1 cells assessed as decrease in total length of pseudovessels at 10 uM after 13 hrs by fluorescence inverted microscopic analysis; assay type: functional, cell-based; details: Homo sapiens
# HUVEC [6] = assay: Selectivity ratio of inhibition of human sGC expressed in HUVEC cells assessed as reduction in GMP level at 20 uM in presence of NPS to inhibition of human sGC expressed in HUVEC cells assessed as reduction in GMP level at 20 uM in presence of NPS/BAY-412272; assay type: cell-based
# HUVEC [7] = assay: Selectivity ratio of IC50 for inhibition of human sGC expressed in HUVEC cells assessed as reduction in GMP level incubated for 2 hrs to human sGC expressed in HUVEC cells assessed as reduction in GMP level incubated for 2 hrs in presence of NPS; assay type: cell-based
# HEPC-CB.1 [8] = assay: Inhibition of angiogenesis in HEPC-CB1 cells assessed as decrease in pseudovessels at 10 uM after 13 hrs by fluorescence inverted microscopic analysis; assay type: functional, cell-based; details: Homo sapiens
# [9] = Inhibition of human sGC expressed in HUVEC cells assessed as reduction in GMP level incubated for 2 hrs by ELISA; assay type: cell-based
# HUVEC [10] = assay: Inhibition of human sGC expressed in HUVEC cells assessed as reduction in GMP level at 2 uM in presence of NPS by ELISA relative to control; assay type: cell-based
# HUVEC [11] = assay: Selectivity ratio of inhibition of human sGC expressed in HUVEC cells assessed as reduction in GMP level at 2 uM in presence of NPS to inhibition of human sGC expressed in HUVEC cells assessed as reduction in GMP level at 2 uM in presence of NPS/BAY-412272; assay type: cell-based
# [12] = Inhibition of bovine lung sGC assessed as reduction in GMP level incubated for 2 hrs in presence of BAY-412272 by ELISA; assay type: tissue-based, Bos taurus
# [13] = Inhibition of bovine lung sGC assessed as reduction in GMP level incubated for 2 hrs in presence of NPS/BAY-412272 by ELISA; assay type: tissue-based, Bos taurus
# Bos taurus = organism: Bos taurus; assay: Selectivity ratio of IC50 for inhibition of bovine lung sGC assessed as reduction in GMP level in presence of NPS/BAY-412272 to IC50 for inhibition of bovine lung sGC assessed as reduction in GMP level in presence of NPS; assay type: tissue-based
# HUVEC [14] = assay: Inhibition of full length human sGC expressed in HUVEC cells assessed as increase in oxidation of heme at 20 uM after 2 hrs by spectroscopic analysis; assay type: cell-based
# [15] = Inhibition of human sGC expressed in HUVEC cells assessed as reduction in GMP level incubated for 24 hrs by ELISA; assay type: cell-based
# HUVEC [16] = assay: Inhibition of human sGC expressed in HUVEC cells assessed as reduction in GMP level at 20 uM in presence of NPS/BAY-412272 by ELISA relative to control; assay type: cell-based
# [17] = target: T1, Dopamine beta-hydroxylase (Homo sapiens, UniProt P09172); assay: Inhibition of Dopamine beta-hydroxylase (unknown origin) incubated for 10 mins
# T1 sequence (P09172 whole entry): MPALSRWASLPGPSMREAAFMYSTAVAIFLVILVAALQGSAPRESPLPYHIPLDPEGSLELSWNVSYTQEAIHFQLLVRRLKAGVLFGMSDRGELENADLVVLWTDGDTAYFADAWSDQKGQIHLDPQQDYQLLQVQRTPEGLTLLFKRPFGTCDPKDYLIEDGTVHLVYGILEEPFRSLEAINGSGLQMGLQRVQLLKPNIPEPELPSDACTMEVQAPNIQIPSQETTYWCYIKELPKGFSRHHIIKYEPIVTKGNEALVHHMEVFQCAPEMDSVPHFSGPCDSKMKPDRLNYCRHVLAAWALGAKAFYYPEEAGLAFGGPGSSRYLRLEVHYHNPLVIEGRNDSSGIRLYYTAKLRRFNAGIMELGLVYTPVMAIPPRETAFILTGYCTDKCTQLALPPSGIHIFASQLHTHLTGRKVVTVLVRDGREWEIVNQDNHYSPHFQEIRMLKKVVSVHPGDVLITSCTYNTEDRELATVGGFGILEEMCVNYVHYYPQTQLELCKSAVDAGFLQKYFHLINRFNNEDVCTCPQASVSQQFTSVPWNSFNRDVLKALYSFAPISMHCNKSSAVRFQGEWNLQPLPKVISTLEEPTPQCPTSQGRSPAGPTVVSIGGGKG
# [18] = Inhibition of rat small intestine GST using CDNB as substrate by spectrophotometric method; assay type: tissue-based
# [19] = Inhibition of Francisella tularensis FabZ
# HEPC-CB.1 [20] = assay: Inhibition of angiogenesis in HEPC-CB1 cells assessed as decrease in total length of pseudovessels at 20 uM after 13 hrs by fluorescence inverted microscopic analysis; assay type: functional, cell-based; details: Homo sapiens
# HEPC-CB.1 [21] = assay: Inhibition of angiogenesis in HEPC-CB1 cells assessed as decrease in pseudovessels at 20 uM after 13 hrs by fluorescence inverted microscopic analysis; assay type: functional, cell-based; details: Homo sapiens
# HEPC-CB.1 [22] = assay: Inhibition of angiogenesis in HEPC-CB1 cells assessed as decrease in number of closed structures at 20 uM after 13 hrs by fluorescence inverted microscopic analysis; assay type: functional, cell-based; details: Homo sapiens
# [23] = Inhibition of Yersinia pestis FabZ
# Hepatocyte = assay: Cytotoxicity against rat hepatocytes assessed as induction intracellular LDH release incubated for 8 to 24 hrs; assay type: cell-based
# [24] = Inhibition of angiogenesis in HEPC-CB1 cells assessed as decrease in number of closed structures at 10 to 20 uM after 13 hrs by fluorescence inverted microscopic analysis; assay type: functional, Homo sapiens, HEPC-CB.1; details: dose 10-20 µM
# [25] = Inhibition of human sGC expressed in HUVEC cells assessed as reduction in GMP level incubated for 48 hrs by ELISA; assay type: cell-based
# [26] = Inhibition of bovine lung sGC assessed as reduction in GMP level incubated for 48 hrs in presence of NPS by ELISA; assay type: tissue-based, Bos taurus
# [27] = Inhibition of angiogenesis in HEPC-CB1 cells assessed as decrease in pseudovessels at 10 to 20 uM after 13 hrs by fluorescence inverted microscopic analysis; assay type: functional, Homo sapiens, HEPC-CB.1; details: dose 10-20 µM
# [28] = Inhibition of angiogenesis in HEPC-CB1 cells assessed as decrease in total length of pseudovessels at 10 to 20 uM after 13 hrs by fluorescence inverted microscopic analysis; assay type: functional, Homo sapiens, HEPC-CB.1; details: dose 10-20 µM
# [29] = Inhibition of human sGC expressed in HUVEC cells assessed as reduction in GMP level incubated for 48 hrs in presence of NPS by ELISA; assay type: cell-based
Structure (SMILES),IC50 [1],IC50 [2],IC50 [3],IC50 [12],IC50 [13],Ratio IC50 (Bos taurus),inhibition (HUVEC [14]),IC50 [15],also measured
COc1c(O)c2c(=O)cc(OC)c3c4c(OC)cc(O)c5c(=O)c(OC)c6c(c(c1[C@H](C(C)=O)[C@](C)(O)C6)c23)c54,1500 nM,1500 nM,1500 nM,,,,,,inhibition (HEPC-CB.1 [4]): Active; inhibition (HEPC-CB.1 [5]): Active; Ratio IC50 (HUVEC [6]): 2; Ratio IC50 (HUVEC [7]): 2; inhibition (HEPC-CB.1 [8]): Active; IC50 [9]: 800 nM; inhibition (HUVEC [10]): < 95%; Ratio IC50 (HUVEC [11]): 3
CC(=O)OC1=C(O)C(=O)c2c(OC(C)=O)ccc(OC(C)=O)c2C1=O,200 nM,28000 nM,500 nM,1400 nM,1000 nM,2,Active,29000 nM,
Cc1cc(O)c2c(=O)c3c(O)cc(O)c4c5c(O)cc(O)c6c(=O)c7c(O)cc(C)c8c1c2c(c34)c(c78)c65 [HYPERICIN],200 nM,700 nM,400 nM,320 nM,350 nM,,,,inhibition (HEPC-CB.1 [4]): Active; inhibition (HEPC-CB.1 [5]): Active; inhibition (HUVEC [16]): Active; IC50 [17]: 21000 nM; Ratio IC50 (HUVEC [7]): 2; inhibition (HEPC-CB.1 [8]): Active; IC50 [9]: 400 nM; Ki [18]: 200 nM; inhibition (HUVEC [10]): < 95%; Ratio IC50 (HUVEC [11]): 3
COc1cc(C)c2c(c1C=O)Oc1c(c(C)c(O)c3c1C(O)OC3=O)OC2=O (configuration not stated) [STICTIC ACID],200 nM,47000 nM,300 nM,2600 nM,2500 nM,2,inactive,44000 nM,IC50 [19]: 13000 nM; inhibition (HEPC-CB.1 [20]): Active; inhibition (HEPC-CB.1 [21]): Active; inhibition (HEPC-CB.1 [22]): Active; IC50 [23]: 13000 nM; IC50 (Hepatocyte): ≤ 13000 nM
O=C1C(O)=C(O)C(=O)c2c(O)ccc(O)c21,,,,,,,inactive,,fold change (FC) [24]: 2; IC50 [25]: 12000 nM; IC50 [26]: 5000 nM; fold change (FC) [27]: 2; fold change (FC) [28]: 2; IC50 [29]: 10000 nM
COc1cc(C/C=C/c2ccccc2)c(OC)cc1O [VIOLASTYRENE],800 nM,16000 nM,800 nM,4900 nM,1800 nM,2,Active,16000 nM,
O=C1C(O)=C(O)C(=O)c2c(O)c(Cl)cc(O)c21,,,,,,,inactive,,IC50 [25]: 12000 nM; IC50 [26]: 3000 nM; IC50 [29]: 13000 nM

# From ChEMBL document CHEMBL4715872, “Soluble Guanylate Cyclase Inhibitors Discovered among Natural Compounds” (J Nat Prod, 2020)
